Values of other authors, collected in patent publication US20050043786A1, “Methods and apparatus for treatment of aneurysmal tissue” (Medtronic AVE, Inc., priority 2003, published 2005).

Details: for route of clearance / elimination: in vivo

SMILES | route of clearance / elimination | further results
C[C@H](CS)C(=O)N1CCC[C@H]1C(=O)O [captopril] | – | bioavailability (given orally): about 75%
CCC(=O)O[C@@H](O[P@](=O)(CCCCc1ccccc1)CC(=O)N1C[C@H](C2CCCCC2)C[C@H]1C(=O)O)C(C)C [fosinopril] | balanced elimination by the liver and kidneys | –
NCCCC[C@H](N[C@@H](CCc1ccccc1)C(=O)O)C(=O)N1CCC[C@H]1C(=O)O [lisinopril] | – | time of peak concentrations in the plasma (oral administration): about 7 hours
CCOC(=O)[C@H](CCc1ccccc1)N[C@@H](C)C(=O)N1CC2(C[C@H]1C(=O)O)SCCS2 [spirapril] | balanced elimination by the liver and kidneys | –
